Source: patent US20240034736A1, “HSD17B13 INHIBITORS AND USES THEREOF” (FL2022-001, Inc., priority 2020, published 2024)

Biological target: Recombinant human HSD17B13 enzyme (Homo sapiens (Human), UniProt Q7Z5P4)
Experiment: HSD17b13 NAD(P)H-Glo Biochemical Assay
Details: for IC50: 50 uM estradiol, 1 mM NAD+, read-out: HSD17β13 IC50
Procedure, shortened: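 Recombinant human HSD17B13 was pre-incubated with inhibitor for 20 min at RT in 20 mM Tris pH 7.4 with 0.002% Tween-20 and 0.02% BSA. Reaction then ran with 50 uM estradiol and 1 mM NAD+ (final) for 3 h at 37° C. NADH formed was detected by NAD(P)H-Glo luminescence after 1 h at RT.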

Recombinant human HSD17B13 enzyme, sequence (Q7Z5P4 20-300): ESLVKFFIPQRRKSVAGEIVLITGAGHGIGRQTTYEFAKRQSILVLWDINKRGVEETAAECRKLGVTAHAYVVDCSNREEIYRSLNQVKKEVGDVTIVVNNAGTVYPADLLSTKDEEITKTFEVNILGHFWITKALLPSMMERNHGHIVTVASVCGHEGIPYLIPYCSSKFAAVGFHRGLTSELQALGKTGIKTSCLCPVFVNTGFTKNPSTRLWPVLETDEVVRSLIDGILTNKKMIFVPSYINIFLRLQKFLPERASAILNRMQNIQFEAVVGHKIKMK

SMILES | inhibition at 10 µM (read-out: HSD17β13 inhibition at 10 uM) [%] | IC50 [µM]
CN(C)C(=O)C1(c2ccc3c(cnn3-c3cc(O)c(F)c(F)c3)c2)CCN(S(C)(=O)=O)CC1 [Compound 29.01, 4-(1-(3,4-Difluoro-5-hydroxy-phenyl)-1H-indazol-5-yl)-N,N-dimethyl-1-(methyl-sulfonyl)piperidine-4-carbox-amide] | < 20 | 
O=S(=O)(c1ccc2c(cnn2-c2cc(O)c(F)c(F)c2)c1)N1CCCCC1 [Compound 30, 2,3-Difluoro-5-(5-(piperidin-1-ylsulfonyl)-1H-indazol-1-yl)phenol] |  | 1 to 30
O=S(=O)(c1ccc2c(cnn2-c2cc(O)c(F)c(F)c2)c1)N1CCOCC1 [Compound 30.01, 2,3-Difluoro-5-(5-(morpholinosulfonyl)-1H-indazol-1-yl)phenol] |  | 0.1 to 1
CS(=O)(=O)N1CCN(c2ccc3c(cnn3-c3cc(C(F)(F)F)cc(O)n3)c2)CC1 [Compound 31, 6-(5-(4-(Methylsulfonyl)piperazin-1-yl)-1H-indazol-1-yl)-4-(trifluoromethyl)pyridin-2-ol] |  | 0.1 to 1
CS(=O)(=O)N1CCN(c2ccc3nn(-c4cc(C(F)(F)F)cc(O)n4)cc3c2)CC1 [Compound 31.01, 6-(5-(4-(Methylsulfonyl)-piperazin-1-yl)-2H-indazol-2-yl)-4-(trifluoromethyl)-pyridin-2-ol] |  | 1 to 30
CS(=O)(=O)N1CCN(c2ccc3c(cnn3-c3cc(O)cc(C(F)(F)F)n3)c2)CC1 [Compound 31.02, 2-(5-(4-(Methylsulfonyl)-piperazin-1-yl)-1H-indazol-1-yl)-6-(trifluoromethyl)-pyridin-4-ol] |  | 1 to 30
CS(=O)(=O)N1CCN(c2ccc3nn(-c4cc(O)cc(C(F)(F)F)n4)cc3c2)CC1 [Compound 31.03, 2-(5-(4-(Methylsulfonyl)-piperazin-1-yl)-2H-indazol-2-yl)-6-(trifluoromethyl)-pyridin-4-ol] |  | 1 to 30
